Test systems include DU-145; HCT-116; HL-60; HOP-62; HT-29; Hs-578T; MOLT-4; NCI-H226; NCI/ADR-RES; PC-3; RPMI-8226; SF-268; SF-295; SK-MEL-2; SNB-19; SW-620; T47D; UO-31; NCI-H460; SF-539.
Common to all, as to assay: NCI tumour cell line growth inhibition, 48 h

The results in this text go back to ChEMBL document CHEMBL1201862, “PubChem BioAssay data set” (2004).

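Cells were grown in 96-well plates and exposed to each compound for 48 hours at five concentrations; endpoints were interpolated linearly between bracketing concentrations, or set to the highest concentration if not reached. GI50 is the concentration that inhibits growth by half.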 Activity calls are given as the source filed them. No stated cut-off is given here; in the data, active = GI50 up to about 1.1 µM and inactive = higher.

As to `CN(C)S(=O)(=O)c1nc(Cl)c2nc[nH]c2n1`, the GI50 in the experiment on DU-145 is > 100 µM (inactive); in the experiment with HCT-116, > 100 µM (inactive); in the experiment with HL-60, 98.6 µM (inactive); with HOP-62 it was > 100 µM (inactive); in the experiment with HT-29, > 100 µM (inactive); in the experiment on Hs-578T it was > 100 µM (inactive). For the same compound, the GI50 in the experiment with MOLT-4, with NCI-H226, in the experiment on NCI/ADR-RES, with PC-3, in the experiment on RPMI-8226 and in the experiment with SF-268 was > 100 µM (inactive) each time. Besides, the GI50 in the experiment on SF-295, with SK-MEL-2, in the experiment with SNB-19, in the experiment on SW-620, with T47D and with UO-31 was > 100 µM (inactive) throughout.

On to `NC(=S)SC1=NC(=O)C2(NN1)c1ccccc1-c1ccccc12`, for which the GI50 in the experiment with DU-145, with HCT-116, in the experiment with HL-60, in the experiment on HOP-62, in the experiment with HT-29 and with Hs-578T was > 10 µM (inactive) throughout. Besides, the GI50 with NCI-H226 is > 10 µM (inactive); in the experiment with NCI-H460, 8.59 µM (inactive); in the experiment with NCI/ADR-RES, 6.84 µM (inactive); in the experiment with PC-3, > 10 µM (inactive); in the experiment on RPMI-8226 it was 5.12 µM (inactive); in the experiment on SF-268 it was > 10 µM (inactive). The GI50 with SF-295 was > 10 µM (inactive); in the experiment with SF-539, > 10 µM (inactive); in the experiment with SNB-19, > 10 µM (inactive); with SW-620, > 10 µM (inactive); in the experiment with T47D, 1.67 µM (inactive); with UO-31 it was 9.1 µM (inactive).

With `O=C1NNC2(C(=O)N1)c1ccccc1-c1ccccc12`, the GI50 with DU-145, in the experiment with HCT-116, in the experiment with HL-60, in the experiment on HOP-62, with HT-29 and in the experiment on Hs-578T was > 10 µM (inactive) each time. In addition, the GI50 in the experiment on MOLT-4, in the experiment with NCI-H226, with NCI-H460, with NCI/ADR-RES, in the experiment on PC-3 and with RPMI-8226 was > 10 µM (inactive) each time. The GI50 with SF-268 was > 10 µM (inactive); in the experiment with SF-295, > 10 µM (inactive); in the experiment with SF-539, > 10 µM (inactive); in the experiment with SNB-19, > 10 µM (inactive); with SW-620, > 10 µM (inactive); in the experiment with T47D, 2.55 µM (inactive). In the experiment on UO-31, the GI50 was > 10 µM (inactive).

With `COC(=O)c1c2c(cc3c1CC1(Cc4ccc(C(C)=O)cc4C1)C3)CCC2` (stereo not drawn), the GI50 in the experiment with DU-145 was 79.3 µM (inactive); in the experiment with HCT-116 it was 36.3 µM (inactive); in the experiment on HL-60 it was 17.1 µM (inactive); in the experiment with HOP-62, 91.2 µM (inactive); with HT-29, 19.5 µM (inactive); in the experiment on Hs-578T it was 28.4 µM (inactive). Besides, the GI50 in the experiment on MOLT-4 is 21 µM (inactive); in the experiment on NCI-H226 it was 67.1 µM (inactive); in the experiment with NCI-H460 it was 42.2 µM (inactive); with NCI/ADR-RES, 21.3 µM (inactive); with PC-3, 19.5 µM (inactive); with RPMI-8226, 24.7 µM (inactive). For the same compound, the GI50 was 83.2 µM (inactive) with SF-268; 40.5 µM (inactive) with SF-295; 85.3 µM (inactive) in the experiment with SF-539; 28.3 µM (inactive) with SW-620; 31.1 µM (inactive) in the experiment on T47D; 52.4 µM (inactive) in the experiment on UO-31.

In the case of `COc1cc(S(=O)(=O)Nc2ccc(-c3csc(/N=C\c4ccccc4O)n3)cc2)ccc1Cl`, the GI50 is 45.9 µM (inactive) with DU-145; 43.1 µM (inactive) in the experiment on HCT-116; 24.4 µM (inactive) in the experiment with HL-60; 65.3 µM (inactive) with HOP-62; > 100 µM (inactive) with HT-29; > 100 µM (inactive) with Hs-578T. The GI50 in the experiment on MOLT-4 was 15.8 µM (inactive); in the experiment with NCI-H226, > 100 µM (inactive); with NCI/ADR-RES, > 100 µM (inactive); in the experiment on PC-3, 39.4 µM (inactive); with RPMI-8226, 29.6 µM (inactive); with SF-268 it was 42 µM (inactive). Also, the GI50 in the experiment on SF-295 is 31.5 µM (inactive); in the experiment with SF-539 it was 55.7 µM (inactive); with SK-MEL-2, 29.2 µM (inactive); in the experiment on SNB-19, 39.3 µM (inactive); with SW-620 it was 37.8 µM (inactive); with T47D, 16.9 µM (inactive). Also, the GI50 in the experiment with UO-31 is 31 µM (inactive).

Consider `CCCC(=O)OC1CC(n2cc(F)c(=O)[nH]c2=O)OC1CO` (stereo not drawn), for which the GI50 in the experiment with DU-145 is 0.182 µM (active); in the experiment with HCT-116 it was 0.731 µM (active); in the experiment with HL-60, 0.646 µM (active); in the experiment on HOP-62, 0.0583 µM (active); with HT-29, 1.29 µM (inactive); with Hs-578T, > 3.19 µM (inactive). The GI50 was > 6.89 µM (inactive) in the experiment on MOLT-4; > 10 µM (inactive) in the experiment with NCI-H226; 0.0948 µM (active) in the experiment on NCI-H460; > 2.55 µM (inactive) with NCI/ADR-RES; 1.48 µM (inactive) with PC-3; 0.0356 µM (active) in the experiment with SF-268. The GI50 in the experiment on SF-295 is 0.148 µM (active); with SF-539, 0.00859 µM (active); in the experiment on SK-MEL-2, > 10 µM (inactive); in the experiment on SW-620, > 10 µM (inactive); in the experiment on T47D it was > 10 µM (inactive); in the experiment on UO-31, 0.362 µM (active).

Regarding `Cc1ccc2[nH]/c(=N/S(=O)(=O)c3cc(C)c(Cl)cc3S)[nH]c2c1`, the GI50 in the experiment with DU-145 was > 100 µM (inactive); in the experiment on HCT-116, 46.6 µM (inactive); in the experiment on HL-60 it was 28.8 µM (inactive); in the experiment on HOP-62, 34.8 µM (inactive); in the experiment on HT-29, > 100 µM (inactive); with Hs-578T, 88.3 µM (inactive). Also, the GI50 is 25.6 µM (inactive) in the experiment on MOLT-4; 16.4 µM (inactive) with NCI-H460; > 100 µM (inactive) in the experiment with NCI/ADR-RES; 50 µM (inactive) with PC-3; 40 µM (inactive) in the experiment on RPMI-8226; 39.8 µM (inactive) in the experiment with SF-268. Also, the GI50 in the experiment with SF-295 is 49.5 µM (inactive); in the experiment with SF-539, 74.3 µM (inactive); in the experiment on SK-MEL-2, 78.3 µM (inactive); with SNB-19, 36.3 µM (inactive); with SW-620, 43.8 µM (inactive); with T47D it was 44.9 µM (inactive). Moreover, the GI50 with UO-31 was 57 µM (inactive).

With `C1=CC(=[N+]2N=C(c3ccccc3)CC2c2ccccc2)C=CC1=C1SC(c2ccccc2)(c2ccccc2)c2ccccc21.[O-][Cl+3]([O-])([O-])[O-]` (stereo not drawn), the GI50 in the experiment with DU-145 is > 100 µM (inactive); in the experiment on HCT-116, 93.5 µM (inactive); in the experiment on HL-60 it was > 100 µM (inactive); with HOP-62 it was > 100 µM (inactive); in the experiment on HT-29, > 100 µM (inactive); in the experiment with Hs-578T, > 100 µM (inactive). The GI50 with MOLT-4, in the experiment on NCI-H226, in the experiment with NCI-H460, in the experiment on NCI/ADR-RES, in the experiment with PC-3 and with SF-268 was > 100 µM (inactive) in each case. Moreover, the GI50 in the experiment on SF-295 is 61.8 µM (inactive); in the experiment with SF-539, > 100 µM (inactive); with SK-MEL-2 it was > 100 µM (inactive); in the experiment with SNB-19 it was 79.4 µM (inactive); with SW-620, > 100 µM (inactive); with T47D, > 100 µM (inactive). For the same compound, the GI50 in the experiment on UO-31 was > 100 µM (inactive).
